Where “and” joins values, the source holds several entries; their conditions need not be identical. Equal entries are not always repeated. Entries after “also recorded” stand apart in the source; their conditions may differ.
How the values were obtained:
mouse ES cells [1] = assay: Extra-embryonic endoderm markers and morphology of induced Sox17+ cells (immunostaining); format: cell-based; details: for morphology of induced Sox17+ cells: immunostaining with α-Sox17 antibody; for expression of extra-embryonic endoderm (EE) markers GATA4, SPARC, AFP, Dab2 in induced Sox17+ cells: mouse ES cells, immunostaining
Method: (§1) Cells were fixed in 4% paraformaldehyde (Sigma) in PBS for 20 min at 4° C. followed by a wash with PBS. Cells were blocked with 10% donkey serum (Jackson Immunoresearch) in PBS/0.1% Triton X and incubated with primary antibodies overnight at 4° C. Secondary antibodies were incubated for 1 h at room temperature. The following antibodies and dilutions were used: goat anti-SOX17, (1:500 R&D systems); rabbit anti-PDX1 (1:200, Chemicon), rabbit anti-FoxA2 (1:500; Upstate), rabbit anti-Dab2 (1:200, Santa Cruz), rabbit anti-SPARC (1:200, Santa Cruz,), mouse anti-AFP (1:100, Sigma), anti-Gata6 (1:50, Santa Cruz Biotech), goat anti-HNF6 (1:200, Santa Cruz Biotech), rabbit anti-RFP/DsRed (1:300, MBL), rabbit anti-GFP (1:200, Molecular Probes). Secondary antibodies were: rhodamine Red-X-conjugated donkey anti-goat antibody, 1:200 (JIRL), Alexa-488-conjugated goat anti-mouse and Alexa-594-conjugated goat anti-rabbit antibodies (1:300, Molecular Probes). Nuclei were visualized by Hoechst 33342 (1:1000, Molecular Probes). Images were taken using an Olympus IX70 Microscope. For quantification images were analyzed for the frequency of SOX17+, FoxA2+ or Pdx1+ cells using Metamorph image analysis software (Molecular Devices) and at least 6 images per well were collected. Data were confirmed in four independent experiments.
During evaluation of primary hit compounds, the inventors observed that small molecules induced Sox17+ cells with two distinct morphologies. One class, including IDE1 and IDE2, induced clustered populations of Sox17+ cells, whereas other compounds led to the formation of a dispersed population of Sox17+ cells. […] Sox17 is expressed in definitive endoderm, but also in extra-embryonic endoderm, and in other germ layer derivatives at later stages of development including vascular endothelium (Kanai-Azuma et al., 2002; Matsui et al., 2006). Since the positive identification of definitive endoderm is hindered by the lack of unique markers that are expressed exclusively there, and not present in other types of endoderm, the inventors performed a negative selection and tested for markers of extra-embryonic endoderm. It was found, that the vast majority (>95%) of the dispersed Sox17+ cells (class II) also expressed extra-embryonic endoderm markers including Gata4 (Morrisey et al., 1996), SPARC (Mason et al., 1986), AFP (Dziadek, 1979) and Dab2 (Yang et al., 2002) (Suppl. FIG. 2B).

mouse ES cells [2] = assay: Sox17 endoderm induction in mouse ES cell monolayer cultures; format: cell-based; details: mouse ES cells; for EC50: 144 h, treatment for 6 days, immunofluorescence, titration 50 nM to 5 μM, read-out: EC50 of Sox17 expression; for percentage of cells expressing Sox17 after 12 hrs treatment: analysed at day 6; for day of treatment at which endoderm induction peaks: 14 days time course; for percent of total cells expressing Sox17 at day 6 of treatment: αSox17 immunofluorescence
Method: Mouse ES cells were routinely cultured on irradiated CF-1 MEF feeder cells in DMEM (Gibco) media supplemented with 15% Fetal Bovine Serum (HyClone FBS, Invitrogen), 2 mM L-glutamine (L-Glu, Gibco), 1.1 mM 2-mercaptoethanol (Gibco), 1 mM nonessential amino acids (Gibco), 1× penicillin/streptomycin (P/S, Gibco) and 5×10^5 units LIF (Chemicon). Cells were passaged at the ratio of 1:6-1:12 every 2-3 days using 0.25% trypsin. To generate the starting population, mouse ES cells was cultured on MEF feeder cells until they reached 80-90% confluence. Prior to differentiation, ES cells were passaged onto gelatin coated plates for 30 min to remove MEFs. MEF depleted ES cells were seeded at 2500 cells per cm^2 on gelatinized plates. After overnight culture, cells were exposed to 25 ng/ml Wnt3a (R&D Systems)+50 ng/ml recombinant Activin A (R&D Systems) or 500 ng/ml Nodal (R&D Systems) in DMEM (Gibco) supplemented with 1×L-Glu and 0.2% FBS (Gibco) for 1 day, then Activin A or Nodal in the same media and cultured for 4-6 days to induce endoderm differentiation. For the chemical inductions, compounds IDE1 and IDE2 (provided by Stuart L. Schreiber) were added at 5 μM concentration in the differentiation media. For pancreatic progenitors induction, the cells were transferred to 50 ng/ml FGF10 (R&D Systems), 0.75 μM KAAD-cyclopamine (Calbiochem) and 2 μM RA (Sigma) or Indolactam V 330 nM (Axxora) in DMEM supplemented with 1×L-Glu, 1×PS, 1×B27 (Invitrogen) for 4 days. SHB431542 was purchased from Sigma. All stock compounds were made with either DMSO or PBS
as §1
Endoderm formation was monitored by Sox17 expression by either flow cytometry detection of Sox17/DsRed or immunofluorescence using anti-Sox17 antibodies. Cells labeled by antibody staining were quantified using Metamorph software ad percentage of total cell number (based on Hoechst 33342 nuclei staining). All conditions were tested in either tri- or quadruplicates.

Smad2 = assay: Western blot analysis of Smad2 phosphorylation in ES cell lysates; format: cell-based, mouse; details: ES cell lysates, after 24 hrs or longer
Method: Cells were lysed in 1×RIPA lysis buffer in the presence of protease inhibitor mixture (Roche)/1% phosphatase inhibitor mixture (Roche). Proteins were separated by 10% Tris-Glycine SDS/PAGE (Bio-rad) under denaturing conditions and transferred to a nitrocellulose membrane. After blocking with 5% skim milk in PBS/0.1% Triton X, the membrane was incubated with primary antibodies against phospho-Smad2 (1:1000, Cell Signaling) overnight at 4° C. The membrane was then washed, incubated with anti-mouse/rabbit peroxidase-conjugated affinity-purified secondary antibody (1:1000, Cell Signaling) at room temperature for 1 h, and developed by SuperSignal chemiluminescence (Pierce).

| EC50 (mouse ES cells [2]) [nM] | SMILES | morphology of induced Sox17+ cells (mouse ES cells [1]) | expression of extra-embryonic endoderm (EE) markers GATA4, SPARC, AFP, Dab2 in induced Sox17+ cells (mouse ES cells [1]) | percentage of cells expressing Sox17 after 12 hrs treatment (mouse ES cells [2]) [%] | day of treatment at which endoderm induction peaks (mouse ES cells [2]) [days] | percentage of cells expressing Sox17 at day 2 of treatment (mouse ES cells [2]) [%] | percent of total cells expressing Sox17 at day 6 of treatment (mouse ES cells [2]) | phosphorylation of Smad2 / activation of the TGF-β pathway (Smad2) | percentage of cells expressing Sox17 at day 4 of treatment (mouse ES cells [2]; day 4) [%] |
| --- | --- | --- | --- | --- | --- | --- | --- | --- | --- |
| 125 | O=C(O)CCCCCC(=O)N/N=C/c1ccccc1C(=O)O [IDE1] | compact, epithelial sheet | marginal expression of EE markers; also recorded: no or a negligible number of cells positive for extra-embryonic markers | ~40 | 6 | 34 | 80% and 81±14% | comparable to that induced by Activin A treatment; also recorded: activation of the TGF-β pathway |  |
| 223 | O=C(O)CCCCCC(=O)NN=C1CCCC1 [IDE2] | compact, epithelial sheet | only rarely detected; also recorded: no or a negligible number of cells positive for extra-embryonic markers | ~40 | 6 | 32 | 72% and 76±14% | comparable to that induced by Activin A treatment; also recorded: activation of the TGF-β pathway | 42±3.83 |
